Literature values in patent US20070014883A1, “Method for treating osteoarthritis” (priority 2005, published 2007).
Entries after “also recorded” stand apart in the source; their conditions may differ.

Tests used:
MMP-1 = target: T1, MMP-1 (Homo sapiens, UniProt P03956); conditions: reference 24
T1 sequence (P03956 100-469): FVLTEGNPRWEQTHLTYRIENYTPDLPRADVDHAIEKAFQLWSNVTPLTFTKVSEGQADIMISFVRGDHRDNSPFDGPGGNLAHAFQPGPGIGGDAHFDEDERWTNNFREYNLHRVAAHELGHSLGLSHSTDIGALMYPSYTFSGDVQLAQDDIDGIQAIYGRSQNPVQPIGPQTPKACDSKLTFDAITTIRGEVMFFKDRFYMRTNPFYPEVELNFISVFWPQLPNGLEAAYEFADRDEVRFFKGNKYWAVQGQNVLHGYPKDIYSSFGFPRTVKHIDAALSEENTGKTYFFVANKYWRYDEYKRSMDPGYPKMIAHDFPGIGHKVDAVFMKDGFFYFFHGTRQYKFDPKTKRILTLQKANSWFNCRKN

MMP-2 = target: T2, MMP-2 (Homo sapiens, UniProt P08253); conditions: for Inhibitory activity against MMP-2, potency relative to captopril: more potent than captopril; for Inhibition of MMP-2: reference 24
T2 sequence (P08253 110-660): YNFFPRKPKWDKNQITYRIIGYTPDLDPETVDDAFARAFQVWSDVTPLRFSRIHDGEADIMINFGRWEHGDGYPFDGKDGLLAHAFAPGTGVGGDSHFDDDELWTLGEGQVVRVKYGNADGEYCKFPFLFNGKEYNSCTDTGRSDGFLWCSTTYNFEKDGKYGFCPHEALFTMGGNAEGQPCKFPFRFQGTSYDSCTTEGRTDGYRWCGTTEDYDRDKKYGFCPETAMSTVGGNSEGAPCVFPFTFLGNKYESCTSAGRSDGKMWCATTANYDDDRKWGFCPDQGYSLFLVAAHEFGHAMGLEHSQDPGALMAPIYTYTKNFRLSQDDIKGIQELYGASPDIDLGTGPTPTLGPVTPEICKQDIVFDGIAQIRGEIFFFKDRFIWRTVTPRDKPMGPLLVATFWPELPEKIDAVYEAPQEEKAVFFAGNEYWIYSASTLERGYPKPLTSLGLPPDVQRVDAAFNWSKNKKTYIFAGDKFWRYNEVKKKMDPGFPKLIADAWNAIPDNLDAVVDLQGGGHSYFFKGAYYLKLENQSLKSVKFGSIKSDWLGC

MMP-9 = MMP-9 (Homo sapiens, UniProt P14780); conditions: for Inhibitory activity against MMP-9, potency relative to captopril: more potent than captopril; for Inhibition of MMP-9: reference 24
MMP-9, sequence (P14780 94-707, species assumed): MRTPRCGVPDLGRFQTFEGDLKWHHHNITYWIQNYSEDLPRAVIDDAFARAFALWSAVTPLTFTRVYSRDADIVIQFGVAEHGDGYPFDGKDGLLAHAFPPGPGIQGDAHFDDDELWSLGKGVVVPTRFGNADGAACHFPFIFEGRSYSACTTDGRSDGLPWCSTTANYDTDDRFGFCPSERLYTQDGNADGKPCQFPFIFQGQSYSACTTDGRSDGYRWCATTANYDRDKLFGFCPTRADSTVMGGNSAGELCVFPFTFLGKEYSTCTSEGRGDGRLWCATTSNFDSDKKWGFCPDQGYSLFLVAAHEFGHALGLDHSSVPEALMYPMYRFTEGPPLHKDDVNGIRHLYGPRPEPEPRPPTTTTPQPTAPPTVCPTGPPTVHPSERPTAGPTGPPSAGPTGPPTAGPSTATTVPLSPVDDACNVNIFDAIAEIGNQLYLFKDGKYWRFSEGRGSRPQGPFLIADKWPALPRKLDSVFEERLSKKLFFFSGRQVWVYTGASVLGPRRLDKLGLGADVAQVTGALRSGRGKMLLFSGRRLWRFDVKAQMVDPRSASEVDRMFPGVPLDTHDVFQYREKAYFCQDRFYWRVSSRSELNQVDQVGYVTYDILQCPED

Row | Structure (SMILES) | Inhibition of MMP-1 (MMP-1) | Inhibitory activity against MMP-2, potency relative to captopril (MMP-2) | Inhibition of MMP-2 (MMP-2) | Inhibitory activity against MMP-9, potency relative to captopril (MMP-9) | Inhibition of MMP-9 (MMP-9)
1 | O=C1CCC(Cc2ccc(O)c(O)c2)O1 (stereo not shown) [M1, δ-(3,4-dihydroxy-phenyl)-γ-valerolactone] | strong inhibitory activity; also recorded: more potent than the parent molecules | 100 fold | strong inhibitory activity; also recorded: more potent than the parent molecules | 100 fold | strong inhibitory activity; also recorded: more potent than the parent molecules
2 | COc1cc(CC2CCC(=O)O2)ccc1O (stereo not shown) [M2, δ-(3-methoxy-4-hydroxyphenyl)-γ-valerolactone] | strong inhibitory activity; also recorded: more potent than the parent molecules | 100 fold | strong inhibitory activity; also recorded: more potent than the parent molecules | 100 fold | strong inhibitory activity; also recorded: more potent than the parent molecules
